Experimental data reported in patent US20240285634A1, “COMPOUND AND METHOD FOR TREATING CHEMOTHERAPY-ASSOCIATED GASTROINTESTINAL SIDE EFFECTS” (ONQUALITY PHARMACEUTICALS CHINA LTD., priority 2021, published 2024).

Key:
[1] = tested on: Chemotherapeutic agent-caused diarrhea models of Balb/c mice; assay: Relieving effect on diarrhea caused by a chemotherapeutic agent (Examples 1-201); type: in vivo
Outline: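 Balb/c mice (10/group) given Formula I compound by injection or gavage, then a chemotherapeutic agent to induce diarrhea, with solvent and chemotherapy-only controls. Diarrhea graded 0–3 daily; relative remission rate = % of treated mice graded below the chemotherapy-group average.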

[2] = tested on: Balb/c mice, constipation caused by continuous administration of a chemotherapeutic agent; assay: Relieving effect on constipation caused by the continuous administration of a chemotherapeutic agent (Examples 385-405); type: in vivo
Outline: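 Balb/c mice (10/group) received vehicle or Formula I compound by injection or gavage, then a chemotherapeutic agent; dose, route, timing and agent are per group. Feces output over 3 h was recorded daily. Feces reduction rate (%) = (control − treated)/control × 100.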

CC(C)N1CCN(c2ccc(Nc3ncc4cc5n(c4n3)C3(CCCCC3)CNC5=O)nc2)CC1 [Compound IV, Lerociclib]
Relative remission rate ([1]; Ex 112, Irinotecan (CPT-11) 240 mg/kg intraperitoneal single, compound 100 mg/kg intraperitoneal single 0.5 h before, cycle 11 days): 60% | Relative remission rate ([1]; Ex 113, Irinotecan (CPT-11) 240 mg/kg intraperitoneal single, compound 100 mg/kg intraperitoneal single 4 h before, cycle 11 days): 50% | Relative remission rate ([1]; Ex 114, Irinotecan (CPT-11) 240 mg/kg intraperitoneal single, compound 100 mg/kg intraperitoneal single 8 h before, cycle 11 days): 30% | Relative remission rate ([1]; Ex 135, Fluorouracil 100 + irinotecan 200 mg/kg intraperitoneal single, compound 100 mg/kg oral single 0.5 h before, cycle 8 days): 30% | Relative remission rate ([1]; Ex 136, Fluorouracil 100 + irinotecan 200 mg/kg intraperitoneal single, compound 100 mg/kg oral single 12 h before, cycle 8 days): 50% | Relative remission rate ([1]; Ex 137, Fluorouracil 100 + irinotecan 200 mg/kg intraperitoneal single, compound 100 mg/kg oral single 24 h before, cycle 8 days): 40% | Relative remission rate ([1]; Ex 183, Fluorouracil 50 + oxaliplatin 5 + irinotecan 50 + tetrahydrofolic acid 90 mg/kg intravenous single, compound 100 mg/kg intraperitoneal single 0.5 h before, cycle 7 days): 80% | Relative remission rate ([1]; Ex 184, Fluorouracil 50 + oxaliplatin 5 + irinotecan 50 + tetrahydrofolic acid 90 mg/kg intravenous single, compound 100 mg/kg intraperitoneal single 4 h before, cycle 7 days): 60% | Relative remission rate ([1]; Ex 185, Fluorouracil 50 + oxaliplatin 5 + irinotecan 50 + tetrahydrofolic acid 90 mg/kg intravenous single, compound 100 mg/kg intraperitoneal single 8 h before, cycle 7 days): 50% | Relative remission rate ([1]; Ex 186, Fluorouracil 50 + oxaliplatin 5 + irinotecan 50 + tetrahydrofolic acid 90 mg/kg intravenous single, compound 100 mg/kg intraperitoneal single 12 h before, cycle 7 days): 50% | Relative remission rate ([1]; Ex 187, Fluorouracil 50 + oxaliplatin 5 + irinotecan 50 + tetrahydrofolic acid 90 mg/kg intravenous single, compound 100 mg/kg intraperitoneal single 24 h before, cycle 7 days): 40% | Relative remission rate ([1]; Ex 195, Topotecan 20 mg/kg intravenous single, compound 100 mg/kg oral single 0.5 h before, cycle 14 days): 60% | diarrhea gradings compared with the chemotherapeutic agent group ([1]; administered before the chemotherapeutic agent, Table 3 and FIG. 2): relieved to different degrees | Relative remission rate (%) ([2]; Example 399, Fluorouracil (5-Fu) 100 mg/kg intraperitoneal injection once a day for 3 days, compound 100 mg/kg oral administration once a day for 3 days, 4 h before the chemotherapeutic agent, experimental cycle 7 days): 50% | relieving effects on constipation ([2]; continuous administration of fluorouracil for less than 7 days): significant relieving effects | relieving effects on constipation ([2]; continuous administration of the chemotherapeutic agent for 7 days or less): have relieving effects
